According to ChEMBL document CHEMBL3297673, “Antifungal amphidinol 18 and its 7-sulfate derivative from the marine dinoflagellate Amphidinium carterae” (J Nat Prod, 2014):
In brackets after ≈: the same amount, converted by molar mass. Activity calls are given as the source filed them. The rule behind the calls is not given here.

Assays:
Candida albicans = assay: Antifungal activity against Candida albicans after 48 hrs by broth microdilution method; type: functional
[1] = Toxicity in erythrocytes (unknown origin) assessed as hemolytic activity; type: cell-based; conditions: erythrocyte

| MIC (Candida albicans) [µg/mL] | SMILES | Activity [1] | Activity (Candida albicans) |
| --- | --- | --- | --- |
| 9 (≈ 6.62 µM) | C=C/C=C/CC/C=C/C=C/C=C/CC/C=C/[C@H](O)[C@H](O)[C@@H]1O[C@@H]([C@H](O)[C@H](O)C(=C)CC[C@@H](O)[C@H]2C[C@@H](O)[C@@H](O)[C@H]([C@@H](O)[C@H](O)/C=C(\C)CCC(O)CC(O)C(O)C(C)CC(O)C(O)CC(C)CCC(O)CC(=O)CC(O)CCCC(O)CCCCC(O)CO)O2)C[C@@H](O)[C@H]1O (some centres undefined) | Toxic |  |
|  | C=C/C=C/CC/C=C/C=C/C=C/CC/C=C/[C@H](O)[C@H](O)[C@@H]1O[C@@H]([C@H](O)[C@H](O)C(=C)CC[C@@H](O)[C@H]2C[C@@H](O)[C@@H](O)[C@H]([C@@H](O)[C@H](O)/C=C(\C)CCC(O)CC(O)C(O)C(C)CC(O)C(O)CC(C)CCC(O)CC(=O)CC(O)CCCC(CCCCC(O)CO)OS(=O)(=O)[O-])O2)C[C@@H](O)[C@H]1O.[Na+] (some centres undefined) | Toxic | inactive |
